Read-outs that look alike come from different tables or passages of the source.
How the values were obtained:
[1] = target: DENV NS5 (Dengue virus type 2, UniProt P29990); test: GTP-binding inhibition of flavivirus NS5 capping enzyme
[2] = target: T1, CHIKV nsP1 (Chikungunya virus, UniProt Q8JUX6); test: Guanylation inhibition; type: biochemical; settings: 200-3.1 µM, 1 hour at 37°C, n=3
T1 sequence (Q8JUX6 1-535 limits assumed): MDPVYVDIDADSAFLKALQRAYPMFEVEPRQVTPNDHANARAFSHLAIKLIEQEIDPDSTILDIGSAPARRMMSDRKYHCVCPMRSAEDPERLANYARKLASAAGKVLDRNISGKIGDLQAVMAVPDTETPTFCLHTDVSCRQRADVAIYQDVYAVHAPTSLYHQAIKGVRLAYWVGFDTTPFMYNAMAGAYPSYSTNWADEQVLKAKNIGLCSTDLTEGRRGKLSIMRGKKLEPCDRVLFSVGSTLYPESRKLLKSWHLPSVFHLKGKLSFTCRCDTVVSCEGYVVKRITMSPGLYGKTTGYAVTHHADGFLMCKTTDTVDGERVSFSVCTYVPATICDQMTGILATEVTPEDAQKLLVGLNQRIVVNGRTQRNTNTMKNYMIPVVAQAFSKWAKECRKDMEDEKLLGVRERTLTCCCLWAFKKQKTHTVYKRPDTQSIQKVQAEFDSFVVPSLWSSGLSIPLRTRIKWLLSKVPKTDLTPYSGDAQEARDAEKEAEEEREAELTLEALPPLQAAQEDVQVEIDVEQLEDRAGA

[3] = target: T1, CHIKV nsP1; test: Fluorescence polarization GTP-competition assay; type: binding; settings: for more active against CHIKV nsP1 than Dengue NS5 (selectivity): Ki CHIKV nsP1 vs DENV NS5
[4] = tested on: CHIKV (strain OPY1); test: Live virus testing, CHIKV in BHK cells, plaque assay; type: cell-based, Chikungunya virus; settings: for CHIKV replication in BHK cells: MOI 0.1, 48 hours; for EC50: Chikungunya virus, BHK, read-out: BHK EC50
[5] = tested on: human adenosine-triphosphategated P2X7 receptor; settings: ref Fischer et al., 2014; cited from earlier work
[6] = tested on: Sindbis virus; test: Live virus testing, Sindbis virus in BHK cells, plaque assay; type: cell-based, Sindbis virus (TE/3'2J); settings: for Sindbis virus replication in vitro: BHK cells, MOI 0.1, 48 hours
[7] = tested on: CHIKV; test: Live virus testing, CHIKV in Huh 7 cells, plaque assay; type: cell-based; settings: Chikungunya virus, read-out: Huh 7 EC50
[8] = Cytotoxicity assay; settings: human
[9] = Cytotoxicity assay
[10] = cited from earlier work

Chain of DENV NS5 (P29990 2492-2758 limits assumed): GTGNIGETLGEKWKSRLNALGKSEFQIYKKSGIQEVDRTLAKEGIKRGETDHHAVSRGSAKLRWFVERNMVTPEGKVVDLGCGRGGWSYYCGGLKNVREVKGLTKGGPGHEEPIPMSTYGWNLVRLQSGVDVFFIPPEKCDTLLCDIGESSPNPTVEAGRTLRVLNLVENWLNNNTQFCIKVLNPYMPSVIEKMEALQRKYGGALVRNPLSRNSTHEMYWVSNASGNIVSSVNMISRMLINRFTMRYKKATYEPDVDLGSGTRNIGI

Structure (SMILES)	Ki [1] [µM]	inhibition of CHIKV nsP1 guanylation activity [2]	Ki [3] [µM]	CHIKV replication in BHK cells [4]	Ca(2+) uptake of P2X7 receptor [5]	Sindbis virus replication in vitro [6]	average selectivity index ([4]; BHK and Huh 7 cells, 24 and 48 hours)	EC50 ([4]; 24 h) [µM]	EC50 ([4]; 48 h) [µM]	EC50 ([7]; Huh-7, 24 h) [µM]	EC50 ([7]; Huh-7, 48 h) [µM]	CC50 at 24 h [8] [µM]	CC50 at 48 h [8] [µM]	CC50 at 24 h ([9]; hamster) [µM]	CC50 at 48 h ([9]; hamster) [µM]	CC50 ([9]; hamster and human) [µM]	EC50 ([6]; Sindbis virus, BHK, 48 h, read-out: EC50 Sindbis virus growth) [µM]	more active against CHIKV nsP1 than Dengue NS5 (selectivity) [3] [X]	absorption in the human intestine [10]
CCc1oc2ccccc2c1C(=O)c1cc(Br)c(O)c(Br)c1 [benzbromarone, Benzbromarone, reference compound]	9 ± 0.7	only showed inhibitory activity at high µM concentrations	13 ± 0.9	–	–	–	–	–	–	–	–	–	–	–	–	–	–	–	–
CC(C)=CCCC1(C)C=Cc2c(O)c3c(c(CC=C(C)C)c2O1)OC12C(=CCCC1C(C)(C)O[C@@]2(C/C=C(\C)C(=O)O)C(=O)O)C3=O (some centres unmarked) [garcinolic acid]	6.9 ± 0.4	inhibited CHIKV nsP1 guanlylation activity in a dose dependent manner	14.5 ± 4.9	Neither pyrantel pamoate nor garcinolic acid were able to reduce CHIKV replication in BHK cells	increase Ca(2+) uptake of the human adenosine-triphosphategated P2X7 receptor	did not markedly decrease Sindbis virus replication in vitro	–	–	–	–	–	–	–	–	–	–	–	–	–
CCCCCc1c2c(cc(O)c1C(=O)O)OC(=O)c1c(cc(OC)cc1C(=O)CCCC)O2 [lobaric acid]	43.8 ± 7	inhibited CHIKV nsP1 guanlylation activity in a dose dependent manner	7 ± 0.6	inhibited viral replication efficiently after 48 hours	–	–	~7	9.9 ± 2.6	8.9 ± 1.3	16.3 ± 1.2	5.3 ± 0.4	60.5 ± 3.8	50 ± 1.3	76.3 ± 2.1	53.8 ± 8.1	50 to 76	5.9	~5	–
CN1CCCN=C1/C=C/c1cccs1 [pyrantel pamoate, reference compound]	38 ± 1.5	inhibited CHIKV nsP1 guanlylation activity in a dose dependent manner	5 ± 0.3	Neither pyrantel pamoate nor garcinolic acid were able to reduce CHIKV replication in BHK cells	–	did not markedly decrease Sindbis virus replication in vitro	–	–	–	–	–	–	–	–	–	–	–	~5	poorly absorbed in the human intestine
